Assay results as given in patent US20040022733A1, “Conjugated lysine copolymers” (priority 2002, published 2004).

Tested on: rat mammary adenocarcinoma cells (ATCC 13762, Mat B cells)
Experiment: MR imaging on a rat tumor model (tumor enhancement)
Format: in vivo
Method: Imaging was done on a rat tumor model. Specifically, rat mammary adenocarcinoma cells (ATCC 13762, Mat B cells) were implanted in Fisher 344 female rats ([…] in 0.5 ml phosphate buffered saline). After 7-9 days, tumors were about 10 mm in diameter and the imaging was done at that point. Imaging was performed using a GE CSI scanner at 2T with a 33 cm bore. A birdcage quadrature coil was used for transmission and receiving. T1 weighted images were obtained (TR 250 ms, TE 18 MS, NEX 16). Rats were imaged prior to injection of contrast agent. […] The rats were then imaged immediately after injection and then at 24 hours.

`O=C([O-])CN(CCN(CC(=O)[O-])CC(=O)O)CCN(CC(=O)[O-])CC(=O)O.[Gd+3]` [Gd-DTPA] was tested, and the tumor enhancement (rat tumor model, standard dose of 0.1 mmol Gd/kG) was 70% and the “wash out of tumors” value (rat, in vivo) was “rapidly wash out of tumors”.
